Test results published in article PMC10657444, “Design and evaluation of tadpole-like conformational antimicrobial peptides” (Communications Biology, 2023).
≈ marks a conversion by molar mass, not a printed value. Non-standard residues stand in square brackets, D forms with d. Residues, ends and D or L forms follow the SMILES beside them.

Experiments:
MRSA 3393 = format: cell-based, Staphylococcus aureus; conditions: 3393
Text: (§1) Bacteria were cultivated in Luria-Bertani (LB) broth.

MRSA ATCC 43300 = format: cell-based, Staphylococcus aureus; conditions: ATCC 43300
Text: as §1

MRSA USA 300 [1] = format: cell-based, Staphylococcus aureus
Text: as §1

E. coli ATCC 25922 = format: cell-based, Escherichia coli
Text: as §1

MRSA USA 300 [2] = assay: microbe, parasite or virus in culture; format: cell-based, Staphylococcus aureus
Experimental: (§2) MRSA USA 300 and K. pneumoniae ATCC 700603 were employed to assess the development of resistance. From inoculated microtiter panels, an aliquot of the well with the highest concentration permitting growth was taken and back diluted in fresh media to a turbidity of a 0.5 McFarland standard. This suspension was then further diluted and used to inoculate a fresh MIC panel resulting in a final concentration of 5 × 10^6 CFU/mL. Panels were incubated according to CLSI guidelines (M07, 11th edition, 2018), MICs were recorded and the next inoculum was prepared from the well containing the highest concentration of drug that allowed growth in identical fashion as described above.

[3] = tested on: K. pneumoniae ATCC 700603; assay: microbe, parasite or virus in culture; format: cell-based, Klebsiella pneumoniae
Experimental: as §2

[4] = tested on: K. pneumoniae ATCC 700603; assay: Transmission electron microscopy; format: cell-based, Klebsiella pneumoniae; conditions: 2 × MIC, 60 min
Experimental: The processing method of the samples for transmission electron microscopy (TEM) was the same as the treatment for SEM. The samples were then prefixed with 2.5% glutaraldehyde at 4°C overnight, post-fixed with osmium tetroxide for 70 min, and washed twice with PBS (pH 7.4). Subsequently, the samples were dehydrated for 10 min in a graded ethanol series (30, 50, 70, 90, and 100%) followed by 10 min in a mixture of absolute ethanol and acetone (1:1, v/v) and 10 min in absolute acetone. The specimens were transferred to a mixture of absolute acetone and epoxy resin (1:1, v/v) for 30 min and then to pure epoxy resin overnight at a constant temperature. Finally, the samples were sectioned using an ultramicrotome, stained with uranyl acetate and lead citrate, and then observed by TEM (Hitachi H-7650, Japan).

SMILES: CC[C@@H](C)[C@@H](NC(=O)[C@@H](Cc1ccccc1)NC(=O)[C@@H](Cc1ccccc1)NC(=O)[C@@H](Cc1ccccc1)NC(=O)[C@H](N)Cc1ccccc1)C(=O)N[C@H](CCCNC(=N)N)C(=O)N[C@H](CCCNC(=N)N)C(=O)N[C@H](CC(C)C)C(=O)N[C@H](Cc1ccccc1)C(=O)N[C@H](CCCNC(=N)N)C(N)=O [RI-HT2] (H-[dF][dF][dF][dF][dI][dR][dR][dL][dF][dR]-NH2; N-terminus assumed)
- MIC Gram+ MRSA 3393 (MRSA 3393): 3.13 µM (≈ 4.53 µg/mL)
- MIC Gram+ MRSA ATCC 43300 (MRSA ATCC 43300): 3.13 µM (≈ 4.53 µg/mL)
- MIC Gram+ MRSA USA 300 (MRSA USA 300 [1]): 3.13 µM (≈ 4.53 µg/mL)
- MIC Gram- E. coli ATCC 25922 (E. coli ATCC 25922): 3.13 µM (≈ 4.53 µg/mL)
- Concentration (MIC in drug resistance assay) (MRSA USA 300 [2]; MRSA USA 300, day 0): 2 mg/L
- Concentration (MIC in drug resistance assay) (MRSA USA 300 [2]; MRSA USA 300, day 1): 2 mg/L
- Concentration (MIC in drug resistance assay) (MRSA USA 300 [2]; MRSA USA 300, day 2): 2 mg/L
- Concentration (MIC in drug resistance assay) (MRSA USA 300 [2]; MRSA USA 300, day 3): 2 mg/L
- Concentration (MIC in drug resistance assay) (MRSA USA 300 [2]; MRSA USA 300, day 4): 4 mg/L
- Concentration (MIC in drug resistance assay) (MRSA USA 300 [2]; MRSA USA 300, day 5): 2 mg/L
- Concentration (MIC in drug resistance assay) (MRSA USA 300 [2]; MRSA USA 300, day 6): 2 mg/L
- Concentration (MIC in drug resistance assay) (MRSA USA 300 [2]; MRSA USA 300, day 7): 4 mg/L
- Concentration (MIC in drug resistance assay) (MRSA USA 300 [2]; MRSA USA 300, day 8): 4 mg/L
- Concentration (MIC in drug resistance assay) (MRSA USA 300 [2]; MRSA USA 300, day 9): 8 mg/L
- Concentration (MIC in drug resistance assay) (MRSA USA 300 [2]; MRSA USA 300, day 10): 4 mg/L
- Concentration (MIC in drug resistance assay) (MRSA USA 300 [2]; MRSA USA 300, day 11): 4 mg/L
- Concentration (MIC in drug resistance assay) (MRSA USA 300 [2]; MRSA USA 300, day 12): 4 mg/L
- Concentration (MIC in drug resistance assay) (MRSA USA 300 [2]; MRSA USA 300, day 13): 4 mg/L
- Concentration (MIC in drug resistance assay) (MRSA USA 300 [2]; MRSA USA 300, day 14): 4 mg/L
- Concentration (MIC in drug resistance assay) (MRSA USA 300 [2]; MRSA USA 300, day 15): 8 mg/L
- Concentration (MIC in drug resistance assay) (MRSA USA 300 [2]; MRSA USA 300, day 16): 4 mg/L
- Concentration (MIC in drug resistance assay) (MRSA USA 300 [2]; MRSA USA 300, day 17): 4 mg/L
- Concentration (MIC in drug resistance assay) (MRSA USA 300 [2]; MRSA USA 300, day 18): 8 mg/L
- Concentration (MIC in drug resistance assay) (MRSA USA 300 [2]; MRSA USA 300, day 19): 8 mg/L
- Concentration (MIC in drug resistance assay) (MRSA USA 300 [2]; MRSA USA 300, day 20): 8 mg/L
- Concentration (MIC in drug resistance assay) (MRSA USA 300 [2]; MRSA USA 300, day 21): 4 mg/L
- Concentration (MIC in drug resistance assay) (MRSA USA 300 [2]; MRSA USA 300, day 22): 8 mg/L
- Concentration (MIC in drug resistance assay) (MRSA USA 300 [2]; MRSA USA 300, day 23): 8 mg/L
- Concentration (MIC in drug resistance assay) (MRSA USA 300 [2]; MRSA USA 300, day 24): 4 mg/L
- Concentration (MIC in drug resistance assay) (MRSA USA 300 [2]; MRSA USA 300, day 25): 8 mg/L
- Concentration (MIC in drug resistance assay) (MRSA USA 300 [2]; MRSA USA 300, day 26): 4 mg/L
- Concentration (MIC in drug resistance assay) (MRSA USA 300 [2]; MRSA USA 300, day 27): 8 mg/L
- Concentration (MIC in drug resistance assay) (MRSA USA 300 [2]; MRSA USA 300, day 28): 8 mg/L
- Concentration (MIC in drug resistance assay) (MRSA USA 300 [2]; MRSA USA 300, day 29): 8 mg/L
- Concentration (MIC in drug resistance assay) (MRSA USA 300 [2]; MRSA USA 300, day 30): 8 mg/L
- Concentration (MIC in drug resistance assay) (MRSA USA 300 [2]; MRSA USA 300, day 31): 8 mg/L
- Concentration (MIC in drug resistance assay) (MRSA USA 300 [2]; MRSA USA 300, day 32): 4 mg/L
- Concentration (MIC in drug resistance assay) (MRSA USA 300 [2]; MRSA USA 300, day 33): 8 mg/L
- Concentration (MIC in drug resistance assay) (MRSA USA 300 [2]; MRSA USA 300, day 34): 8 mg/L
- Concentration (MIC in drug resistance assay) (MRSA USA 300 [2]; MRSA USA 300, day 35): 8 mg/L
- Concentration (MIC in drug resistance assay) (MRSA USA 300 [2]; MRSA USA 300, day 36): 8 mg/L
- Concentration (MIC in drug resistance assay) (MRSA USA 300 [2]; MRSA USA 300, day 37): 8 mg/L
- Concentration (MIC in drug resistance assay) (MRSA USA 300 [2]; MRSA USA 300, day 38): 8 mg/L
- Concentration (MIC in drug resistance assay) (MRSA USA 300 [2]; MRSA USA 300, day 39): 8 mg/L
- Concentration (MIC in drug resistance assay) (MRSA USA 300 [2]; MRSA USA 300, day 40): 4 mg/L
- increase in MIC after 40 passages (MRSA USA 300 [2]; serial passage at sub-MIC): four-fold
- Concentration (MIC in drug resistance assay) ([3]; K. pneumoniae ATCC 700603, day 0): 6.25 mg/L
- Concentration (MIC in drug resistance assay) ([3]; K. pneumoniae ATCC 700603, day 1): 6.25 mg/L
- Concentration (MIC in drug resistance assay) ([3]; K. pneumoniae ATCC 700603, day 2): 6.25 mg/L
- Concentration (MIC in drug resistance assay) ([3]; K. pneumoniae ATCC 700603, day 3): 6.25 mg/L
- Concentration (MIC in drug resistance assay) ([3]; K. pneumoniae ATCC 700603, day 4): 12.5 mg/L
- Concentration (MIC in drug resistance assay) ([3]; K. pneumoniae ATCC 700603, day 5): 6.25 mg/L
- Concentration (MIC in drug resistance assay) ([3]; K. pneumoniae ATCC 700603, day 6): 6.25 mg/L
- Concentration (MIC in drug resistance assay) ([3]; K. pneumoniae ATCC 700603, day 7): 12.5 mg/L
- Concentration (MIC in drug resistance assay) ([3]; K. pneumoniae ATCC 700603, day 8): 25 mg/L
- Concentration (MIC in drug resistance assay) ([3]; K. pneumoniae ATCC 700603, day 9): 12.5 mg/L
- Concentration (MIC in drug resistance assay) ([3]; K. pneumoniae ATCC 700603, day 10): 12.5 mg/L
- Concentration (MIC in drug resistance assay) ([3]; K. pneumoniae ATCC 700603, day 11): 12.5 mg/L
- Concentration (MIC in drug resistance assay) ([3]; K. pneumoniae ATCC 700603, day 12): 25 mg/L
- Concentration (MIC in drug resistance assay) ([3]; K. pneumoniae ATCC 700603, day 13): 12.5 mg/L
- Concentration (MIC in drug resistance assay) ([3]; K. pneumoniae ATCC 700603, day 14): 25 mg/L
- Concentration (MIC in drug resistance assay) ([3]; K. pneumoniae ATCC 700603, day 15): 25 mg/L
- Concentration (MIC in drug resistance assay) ([3]; K. pneumoniae ATCC 700603, day 16): 12.5 mg/L
- Concentration (MIC in drug resistance assay) ([3]; K. pneumoniae ATCC 700603, day 17): 25 mg/L
- Concentration (MIC in drug resistance assay) ([3]; K. pneumoniae ATCC 700603, day 18): 25 mg/L
- Concentration (MIC in drug resistance assay) ([3]; K. pneumoniae ATCC 700603, day 19): 25 mg/L
- Concentration (MIC in drug resistance assay) ([3]; K. pneumoniae ATCC 700603, day 20): 25 mg/L
- Concentration (MIC in drug resistance assay) ([3]; K. pneumoniae ATCC 700603, day 21): 25 mg/L
- Concentration (MIC in drug resistance assay) ([3]; K. pneumoniae ATCC 700603, day 22): 25 mg/L
- Concentration (MIC in drug resistance assay) ([3]; K. pneumoniae ATCC 700603, day 23): 25 mg/L
- Concentration (MIC in drug resistance assay) ([3]; K. pneumoniae ATCC 700603, day 24): 25 mg/L
- Concentration (MIC in drug resistance assay) ([3]; K. pneumoniae ATCC 700603, day 25): 25 mg/L
- Concentration (MIC in drug resistance assay) ([3]; K. pneumoniae ATCC 700603, day 26): 12.5 mg/L
- Concentration (MIC in drug resistance assay) ([3]; K. pneumoniae ATCC 700603, day 27): 25 mg/L
- Concentration (MIC in drug resistance assay) ([3]; K. pneumoniae ATCC 700603, day 28): 25 mg/L
- Concentration (MIC in drug resistance assay) ([3]; K. pneumoniae ATCC 700603, day 29): 25 mg/L
- Concentration (MIC in drug resistance assay) ([3]; K. pneumoniae ATCC 700603, day 30): 25 mg/L
- Concentration (MIC in drug resistance assay) ([3]; K. pneumoniae ATCC 700603, day 31): 25 mg/L
- Concentration (MIC in drug resistance assay) ([3]; K. pneumoniae ATCC 700603, day 32): 12.5 mg/L
- Concentration (MIC in drug resistance assay) ([3]; K. pneumoniae ATCC 700603, day 33): 25 mg/L
- Concentration (MIC in drug resistance assay) ([3]; K. pneumoniae ATCC 700603, day 34): 12.5 mg/L
- Concentration (MIC in drug resistance assay) ([3]; K. pneumoniae ATCC 700603, day 35): 25 mg/L
- Concentration (MIC in drug resistance assay) ([3]; K. pneumoniae ATCC 700603, day 36): 25 mg/L
- Concentration (MIC in drug resistance assay) ([3]; K. pneumoniae ATCC 700603, day 37): 12.5 mg/L
- Concentration (MIC in drug resistance assay) ([3]; K. pneumoniae ATCC 700603, day 38): 25 mg/L
- Concentration (MIC in drug resistance assay) ([3]; K. pneumoniae ATCC 700603, day 39): 25 mg/L
- Concentration (MIC in drug resistance assay) ([3]; K. pneumoniae ATCC 700603, day 40): 12.5 mg/L
- increase in MIC after 40 passages ([3]; serial passage at sub-MIC): four-fold
- membrane and intracellular structure by TEM (in words) [4]: cytoplasmic membranes became blurred and separated
